We go through 27 compounds from US20070249670A1, “Glycogen Phosphorylase Inhibitor Compounds and Pharmaceutical Compositions Thereof” (SMITHKLINE BEECHAM CORPORATION, priority 2004, published 2007).

Molecules are shown by their SMILES. pIC50: −log10 of the molar value.

For this assay, the target named is T1, human liver glycogen phosphorylase a (HLGPa) (Homo sapiens, UniProt P06737).
T1 construct: creating a full-length cDNA fused at the 5′ end to codons for methionine-glycine-alanine-histidine; 6xHis tag (leader Met-Gly-Ala-His6-Gly-Gly) (N); made in house; host or cells: E. coli (bacterial expression plasmid pTXK1007LTev)
T1 sequence (P06737 2-847 limits assumed): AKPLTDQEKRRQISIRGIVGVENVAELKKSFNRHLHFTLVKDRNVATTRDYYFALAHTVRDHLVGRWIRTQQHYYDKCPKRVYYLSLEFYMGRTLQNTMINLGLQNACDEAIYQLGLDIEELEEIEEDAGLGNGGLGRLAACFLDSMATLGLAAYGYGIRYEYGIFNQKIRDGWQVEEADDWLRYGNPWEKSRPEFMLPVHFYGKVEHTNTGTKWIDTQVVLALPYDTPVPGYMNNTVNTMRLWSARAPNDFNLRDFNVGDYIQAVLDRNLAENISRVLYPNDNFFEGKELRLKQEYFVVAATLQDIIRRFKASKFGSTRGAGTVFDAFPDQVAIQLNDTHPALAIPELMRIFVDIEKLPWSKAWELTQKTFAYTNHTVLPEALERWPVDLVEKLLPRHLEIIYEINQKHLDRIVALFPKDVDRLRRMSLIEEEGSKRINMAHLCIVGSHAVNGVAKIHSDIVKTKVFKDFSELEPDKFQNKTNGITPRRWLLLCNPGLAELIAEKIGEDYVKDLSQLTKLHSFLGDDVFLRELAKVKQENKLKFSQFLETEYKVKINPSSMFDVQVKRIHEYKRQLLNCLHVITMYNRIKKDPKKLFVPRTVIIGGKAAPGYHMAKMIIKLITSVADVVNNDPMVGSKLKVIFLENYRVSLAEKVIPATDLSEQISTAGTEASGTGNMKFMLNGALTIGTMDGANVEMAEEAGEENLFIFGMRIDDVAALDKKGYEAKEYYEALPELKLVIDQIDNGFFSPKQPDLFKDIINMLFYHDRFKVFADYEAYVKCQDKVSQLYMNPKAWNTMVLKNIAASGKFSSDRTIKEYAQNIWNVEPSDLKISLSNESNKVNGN
The assay is described as follows: Human liver glycogen phosphorylase a enzymatic activity assay (coupled, fluorescent resorufin readout, with and without 10 mM glucose). The class given is biochemical.

[1] abbreviates: human liver glycogen phosphorylase a, table does not say whether with or without 10 mM glucose.
[2] abbreviates: human liver glycogen phosphorylase a enzymatic activity assay.

Usually pIC50 stands for −log10 of the IC50, conventionally taken in molar units. A high value points to a low IC50. Under setting [1], `COc1ccc(-c2cnc(C(=O)NC3(C(=O)O)CCCCCC3)c(NC(=O)Nc3c(C)cc(C)cc3C)c2)cc1` [Example 325, 1-({[5-[4-(methyloxy)phenyl]-3-({[(2,4,6-trimethylphenyl)amino]carbonyl}amino)-2-pyridinyl]carbonyl}amino)cycloheptanecarboxylic acid] gave a pIC50 of 7.51.

For `COc1cc(NC(=O)Nc2c(C)cccc2Cl)c(C(=O)N[C@H](C(=O)O)C2CCCCC2)cc1OC` [Example 113, (2S)-{[2-({[(2-chloro-6-methylphenyl)amino]carbonyl}amino)-4,5-dimethoxybenzoyl]amino}(cyclohexyl)acetic acid], the pIC50 under setting [2] was 5.15.

With `Cc1cccc(Cl)c1NC(=O)Nc1cc2ccccc2cc1C(=O)NC(C(=O)O)c1ccccc1` (stereo not drawn) [Example 123], under setting [2], the pIC50 is 6.57.

`COC(=O)[C@@H](NC(=O)c1sc(-c2ccc(F)cc2)cc1NC(=O)Nc1c(Cl)cccc1Cl)C1CCCCC1` [Example 386, methyl(2S)-cyclohexyl({[3-({[(2,6-dichlorophenyl)amino]carbonyl}amino)-5-(4-fluorophenyl)-2-thienyl]carbonyl}amino)ethanoate] showed a pIC50 under setting [1] of 5.37.

For the compound `CCCc1cc(C)c(NC(=O)Nc2cc(F)ccc2C(=O)N[C@@](C)(C(=O)O)C2CCCCC2)c(C)c1` [Example 479, 2-cyclohexyl-N-{[2-({[(2,6-dimethyl-4-propylphenyl)amino]carbonyl}amino)-4-fluorophenyl]carbonyl}-L-alanine], under setting [2], the pIC50 was 8.40.

Consider `Cc1cc(C)c(NC(=O)Nc2cc(-c3ccccc3)ccc2C(=O)NC2(C(=O)O)CCCCCCC2)c(C)c1` [Example 529, 1-({[3-({[(2,4,6-Trimethylphenyl)amino]carbonyl}amino)-4-biphenylyl]carbonyl}amino)cyclooctanecarboxylic acid], for which, under setting [2], the pIC50 was 8.70.

Under setting [2], `Cc1cccc(C)c1NC(=O)Nc1cc2ccccc2cc1C(=O)N[C@@H](Cc1ccc(O)cc1)C(=O)O` [Example 53, N-[3-({[(2,6-dimethylphenyl)amino]carbonyl}amino)-2-naphthoyl]-L-tyrosine] showed a negative-log IC50 (pIC50) of 6.44. This pIC50 lies 2.26 log units lower than the previous one.

In turn, `Cc1cccc(Cl)c1NC(=O)Nc1cc(F)c(F)cc1C(=O)N[C@@H](CC(=O)O)C(=O)O` [Example 66, N-[2-({[(2-chloro-6-methylphenyl)amino]carbonyl}amino)-4,5-difluorobenzoyl]-L-aspartic acid] gave a pIC50 under setting [2] of 5.15.

`Cc1cccc(Cl)c1NC(=O)Nc1cc2ccccc2cc1C(=O)N[C@@H](CO)C(=O)O` [Example 34, N-[3-({[(2-chloro-6-methylphenyl)amino]carbonyl}amino)-2-naphthoyl]-L-serine] gave a pIC50 under setting [2] of 6.19.

Take `COC(=O)[C@@H](NC(=O)c1cc(Cc2ccccc2)sc1NC(=O)Nc1c(Cl)cccc1Cl)C1CCCCC1` [Example 398, methyl(2S)-cyclohexyl({[2-({[(2,6-dichlorophenyl)amino]carbonyl}amino)-5-(phenylmethyl)-3-thienyl]carbonyl}amino)ethanoate]: under setting [2], the pIC50 was 5.51. Compared with the last compound, the pIC50 is 0.68 log units lower.

As for `COc1ccc(-c2cc(NC(=O)Nc3c(Cl)cc(OC(F)(F)F)cc3Cl)c(C(=O)N[C@H](C(=O)O)C3CCCCC3)s2)cc1` [Example 433, (2S)-cyclohexyl[({3-{[({2,6-dichloro-4-[(trifluoromethyl)oxy]phenyl}amino)carbonyl]amino}-5-[4-(methyloxy)phenyl]-2-thienyl}carbonyl)amino]ethanoic acid], the pIC50 under setting [2] is 7.10.

For the compound `O=C(Nc1cc2ccccc2cc1C(=O)NC1(C(=O)O)CCN(Cc2ccccc2)CC1)Nc1c(Cl)cccc1Cl` [Example 286, 4-({[3-({[(2,6-Dichlorophenyl)amino]carbonyl}amino)-2-naphthalenyl]carbonyl}amino)-1-(phenylmethyl)-4-piperidinecarboxylic acid], under setting [1], the pIC50 is 5.86.

`COc1ccc(-c2cc(C(=O)O)c(NC(=O)Nc3c(C)cc(C)cc3C)s2)cc1` [Example 424, 5-[4-(methyloxy)phenyl]-2-({[(2,4,6-trimethylphenyl)amino]carbonyl}amino)-3-thiophenecarboxylic acid] had a pIC50 under setting [2] of 6.54.

`O=C(Nc1cc(-c2cccnc2)sc1C(=O)O)Nc1c(Cl)cccc1Cl` [Example 403, 3-({[(2,6-dichlorophenyl)amino]carbonyl}amino)-5-(3-pyridinyl)-2-thiophenecarboxylic acid]: the pIC50 under setting [2] was 5.37.

As for `Cc1cc(C)c(NC(=O)Nc2cc3ccccc3cc2C(=O)NC2(C(=O)O)CCS(=O)(=O)CC2)c(C)c1` [Example 285, 4-({[3-({[(2,4,6-Trimethylphenyl)amino]carbonyl}amino)-2-naphthalenyl]carbonyl}amino)tetrahydro-2H-thiopyran-4-carboxylic acid 1,1-dioxide], under setting [1], the pIC50 is 5.48.

Compound `Cc1cccc(Cl)c1NC(=O)Nc1ccc(I)cc1C(=O)N[C@@H](CC(=O)O)C(=O)O` [Example 89, N-[2-({[(2-chloro-6-methylphenyl)amino]carbonyl}amino)-5-iodobenzoyl]-L-aspartic acid] had a pIC50 under setting [2] of 4.76.

Take `Cc1cccc(C)c1NC(=O)Nc1cc(-c2ccc(O)cc2)ccc1C(=O)N[C@H](C(=O)O)C1CCCCC1` [Example 187, (2S)-Cyclohexyl({[3-({[(2,6-dimethylphenyl)amino]carbonyl}amino)-4′-hydroxy-4-biphenylyl]carbonyl}amino)ethanoic acid]: the pIC50 under setting [2] is 7.47.

`Cc1cccc(Cl)c1NC(=O)Nc1cc(F)c(F)cc1C(=O)N[C@@H](CC1CCCCC1)C(=O)O` [Example 114, N-[2-({[(2-chloro-6-methylphenyl)amino]carbonyl}amino)-4,5-difluorobenzoyl]-3-cyclohexyl-L-alanine] showed a negative logarithm of the IC50 (pIC50) under setting [2] of 4.73.

Compound `Cc1cc(C)c(NC(=O)Nc2cc(-c3ccc(F)c(F)c3)ccc2C(=O)N[C@@H](C(=O)O)[C@H](C)OC(C)(C)C)c(C)c1` [Example 522, N-{[3′,4′-difluoro-3-({[(2,4,6-trimethylphenyl)amino]carbonyl}amino)-4-biphenylyl]carbonyl}-O-(1,1-dimethylethyl)-D-threonine] had a pIC50 under setting [2] of 6.17.

The compound `Cc1cc(C)c(NC(=O)Nc2cc3ccccc3cc2C(=O)N[C@H](CC(=O)O)C2CCCCC2)c(C)c1` [Example 338, (3R)-3-cyclohexyl-3-({[3-({[(2,4,6-trimethylphenyl)amino]carbonyl}amino)-2-naphthalenyl]carbonyl}amino)propanoic acid] gave a pIC50 under setting [1] of 5.67.

Compound `CCCCN(CC(=O)O)C(=O)c1cc2ccccc2cc1NC(=O)Nc1c(Cl)cccc1Cl` [Example 252, N-butyl-N-{[3-({[(2,6-dichlorophenyl)amino]carbonyl}amino)-2-naphthalenyl]carbonyl}glycine] showed a pIC50 under setting [1] of 6.19.

Under setting [2], `Cc1cccc(C)c1NC(=O)Nc1cc(Cl)ccc1C(=O)N[C@H](C(=O)O)C1CCCCC1` [Example 167, (2S)-({[4-Chloro-2-({[(2,6-dimethylphenyl)amino]carbonyl}amino)phenyl]carbonyl}amino)(cyclohexyl)-ethanoic acid] had a pIC50 of 6.41.

Under setting [2], `Cc1cc(C)c(NC(=O)Nc2cc3ccccc3cc2C(=O)N[C@@H](Cc2ccccc2)C(=O)O)c(C)c1` [Example 514, N-{[3-({[(2,4,6-trimethylphenyl)amino]carbonyl}amino)-2-naphthalenyl]carbonyl}-L-phenylalanine] gave a pIC50 of 7.28.

In the case of `O=C(O)C[C@H](NC(=O)c1cc2ccccc2cc1NC(=O)Nc1c(F)cccc1F)C(=O)O` [Example 149, N-{[3-({[(2,6-difluorophenyl)amino]carbonyl}amino)-2-naphthalenyl]carbonyl}-L-aspartic acid], the pIC50 under setting [2] is 5.30.

Under setting [2], `Cc1cc(C)c(CC(=O)Nc2cc3ccccc3cc2C(=O)N[C@H](C(=O)O)C2CCCCC2)c(C)c1` [Example 457, (2S)-cyclohexyl{[(3-{[(2,4,6-trimethylphenyl)acetyl]amino}-2-naphthalenyl)carbonyl]amino}ethanoic acid] had a pIC50 of 7.19.

`CCc1cccc(CC)c1NC(=O)Nc1cc2ccccc2cc1C(=O)N[C@H](C(=O)O)C1CCCCC1` [Example 93, (2S)-cyclohexyl({[3-({[(2,6-diethylphenyl)amino]carbonyl}amino)-2-naphthalenyl]carbonyl}amino)ethanoic acid] showed a pIC50 under setting [2] of 6.23. Against the preceding compound, the pIC50 is 0.96 log units lower.

Regarding `COc1ccc(-c2nc(NC(=O)Nc3c(Cl)cc(Cl)cc3Cl)c(C(=O)N[C@H](C(=O)O)C3CCCCC3)s2)cc1` [Example 484, (2S)-Cyclohexyl({[2-[4-(methyloxy)phenyl]-4-({[(2,4,6-trichlorophenyl)amino]carbonyl}amino)-1,3-thiazol-5-yl]carbonyl}amino)ethanoic acid], the pIC50 under setting [2] is 5.30.
